Results on 18 molecules are retold here after patent US9579314B2 (priority 2015, dated 2017).

The target of one assay is Human β2 adrenoceptor (Homo sapiens, UniProt P07550). Conditions: read-out: B2 binding affinity.
For the next assay, the target named is Human M3 receptor (Homo sapiens, UniProt P20309). As to conditions: read-out: M3 binding affinity.

pIC50: −log10 of the molar value. Where “and” joins values, the source holds several entries; their conditions need not be identical. Identical values can stand only once. Counter-ions that a name gives are not always drawn. Bounds are passed on as bounds.

Human M3 receptor, sequence (P20309 whole entry): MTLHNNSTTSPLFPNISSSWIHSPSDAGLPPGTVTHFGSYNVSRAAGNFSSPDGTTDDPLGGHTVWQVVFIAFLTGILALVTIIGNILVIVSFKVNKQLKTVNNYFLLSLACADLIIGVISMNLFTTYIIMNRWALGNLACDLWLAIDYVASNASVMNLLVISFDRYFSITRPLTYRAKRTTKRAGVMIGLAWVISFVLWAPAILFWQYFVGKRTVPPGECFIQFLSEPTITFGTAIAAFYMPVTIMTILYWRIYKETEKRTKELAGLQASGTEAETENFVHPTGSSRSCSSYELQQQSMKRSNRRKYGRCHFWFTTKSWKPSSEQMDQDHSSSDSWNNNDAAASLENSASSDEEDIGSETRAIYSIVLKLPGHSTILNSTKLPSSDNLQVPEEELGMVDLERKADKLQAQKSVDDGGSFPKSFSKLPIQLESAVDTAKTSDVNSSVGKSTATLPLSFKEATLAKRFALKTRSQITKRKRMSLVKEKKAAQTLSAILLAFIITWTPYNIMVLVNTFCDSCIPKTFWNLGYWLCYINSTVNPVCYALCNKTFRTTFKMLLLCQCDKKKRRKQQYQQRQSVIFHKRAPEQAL
Human β2 adrenoceptor, sequence (P07550 whole entry): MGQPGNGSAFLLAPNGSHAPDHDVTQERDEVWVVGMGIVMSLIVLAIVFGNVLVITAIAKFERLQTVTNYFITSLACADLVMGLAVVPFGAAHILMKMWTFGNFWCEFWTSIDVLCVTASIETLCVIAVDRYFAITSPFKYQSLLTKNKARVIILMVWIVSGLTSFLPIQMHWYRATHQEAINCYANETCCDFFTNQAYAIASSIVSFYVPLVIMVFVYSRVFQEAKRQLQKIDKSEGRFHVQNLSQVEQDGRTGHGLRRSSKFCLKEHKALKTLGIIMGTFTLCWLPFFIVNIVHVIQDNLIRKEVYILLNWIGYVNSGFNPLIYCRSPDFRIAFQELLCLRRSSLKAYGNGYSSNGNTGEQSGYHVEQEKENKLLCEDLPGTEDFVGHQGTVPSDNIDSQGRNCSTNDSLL

Regarding `O=C(NCCOc1cccc([C@](O)(C(=O)OCC2CCN(Cc3ccccc3)CC2)c2ccccc2)c1)c1ccc(CCNC[C@H](O)c2ccc(O)c3[nH]c(=O)ccc23)cc1` [Compound 38, (S)-(1-benzylpiperidin-4-yl)methyl 2-hydroxy-2-(3-(2-(4-(2-(((R)-2-hydroxy-2-(8-hydroxy-2-oxo-1,2-dihydroquinolin-5-yl)ethyl)amino)ethyl)benzamido)ethoxy)phenyl)-2-phenylacetate], the pIC50 at Human β2 adrenoceptor and on Human M3 receptor was greater than 9.52 each time.
Turning to `O=C(NCCc1cccc(C(O)(C(=O)OCC2CCN(Cc3ccccc3)CC2)c2ccccc2)c1)c1ccc(CCNC[C@H](O)c2ccc(O)c3[nH]c(=O)ccc23)cc1` (stereo partly drawn) [Compound 40, (1-benzylpiperidin-4-yl)methyl 2-hydroxy-2-(3-(2-(4-(2-(((R)-2-hydroxy-2-(8-hydroxy-2-oxo-1,2-dihydroquinolin-5-yl)ethyl)amino)ethyl)benzamido)ethyl)phenyl)-2-phenylacetate], the pIC50 on Human β2 adrenoceptor and at Human M3 receptor was 8.52 to 9.52 in each case.
Consider `O=C(c1ccc(CNC[C@H](O)c2ccc(O)c3[nH]c(=O)ccc23)cc1)N1CC(COc2cccc([C@](O)(C(=O)OCC3CCN(Cc4ccccc4)CC3)c3ccccc3)c2)C1` [Compound 41, (S)-(1-benzylpiperidin-4-yl)methyl 2-hydroxy-2-(3-((1-(4-((((R)-2-hydroxy-2-(8-hydroxy-2-oxo-1,2-dihydroquinolin-5-yl)ethyl)amino)methyl)-benzoyl)azetidin-3-yl)methoxy)phenyl)-2-phenylacetate], for which the pIC50 at Human β2 adrenoceptor and on Human M3 receptor was 8.52 to 9.52 throughout.
For the molecule `O=C(c1ccc(CCNC[C@H](O)c2ccc(O)c3[nH]c(=O)ccc23)cc1)N1CC(COc2cccc([C@](O)(C(=O)OCC3CCN(Cc4ccccc4)CC3)c3ccccc3)c2)C1` [Compound 42, (S)-(1-benzylpiperidin-4-yl)methyl 2-hydroxy-2-(3-((1-(4-(2-(((R)-2-hydroxy-2-(8-hydroxy-2-oxo-1,2-dihydroquinolin-5-yl)ethyl)amino)ethyl)benzoyl)azetidin-3-yl)methoxy)phenyl)-2-phenylacetate], the pIC50 on Human β2 adrenoceptor and on Human M3 receptor was greater than 9.52 each time.
For the molecule `COc1cc(NC(=O)COc2cccc([C@](O)(C(=O)OCC3CCN(Cc4ccccc4)CC3)c3ccccc3)c2)ccc1CNC[C@H](O)c1ccc(O)c2[nH]c(=O)ccc12` [Compound 42A, (S)-(1-benzylpiperidin-4-yl)methyl 2-hydroxy-2-(3-(2-((4-((((R)-2-hydroxy-2-(8-hydroxy-2-oxo-1,2-dihydroquinolin-5-yl)ethyl)amino)methyl)-3-methoxyphenyl)amino)-2-oxoethoxy)phenyl)-2-phenylacetate], the pIC50 at Human β2 adrenoceptor is 8.52 to 9.52; at Human M3 receptor, greater than 9.52.
In the case of `COc1cc(NC(=O)COc2cccc([C@](O)(C(=O)OCC3CCN(Cc4ccccc4)CC3)c3ccccc3)c2)c(F)cc1CNC[C@H](O)c1ccc(O)c2[nH]c(=O)ccc12` [Compound 42B, (1-benzylpiperidin-4-yl)methyl (S)-2-(3-(2-((2-fluoro-4-((((R)-2-hydroxy-2-(8-hydroxy-2-oxo-1,2-dihydroquinolin-5-yl)ethyl)amino)methyl)-5-methoxyphenyl)amino)-2-oxoethoxy)phenyl)-2-hydroxy-2-phenylacetate], the pIC50 is greater than 9.52 on Human β2 adrenoceptor; > 9.52 and 8.52 to 9.52 on Human M3 receptor.
Regarding `O=C(NCc1ccc(COc2cccc([C@](O)(C(=O)OCC3CCN(Cc4ccccc4)CC3)c3ccccc3)c2)cc1)c1ccc(CCNC[C@H](O)c2ccc(O)c3[nH]c(=O)ccc23)cc1` [Compound 42C, (1-benzylpiperidin-4-yl)methyl (S)-2-hydroxy-2-(3-((4-((4-(2-(((R)-2-hydroxy-2-(8-hydroxy-2-oxo-1,2-dihydroquinolin-5-yl)ethyl)amino)ethyl)benzamido)methyl)benzyl)oxy)phenyl)-2-phenylacetate], the pIC50 on Human β2 adrenoceptor was greater than 9.52; on Human M3 receptor it was 8.52 to 9.52.
As to `O=C(NCc1ccc(COc2cccc([C@](O)(C(=O)OCC3CCN(Cc4ccccc4)CC3)c3ccccc3)c2)cc1)c1ccc(CNC[C@H](O)c2ccc(O)c3[nH]c(=O)ccc23)cc1` [Compound 42D, (1-benzylpiperidin-4-yl)methyl (S)-2-hydroxy-2-(3-((4-((4-((((R)-2-hydroxy-2-(8-hydroxy-2-oxo-1,2-dihydroquinolin-5-yl)ethyl)amino)methyl)benzamido)methyl)benzyl)oxy)phenyl)-2-phenylacetate], the pIC50 on Human β2 adrenoceptor is greater than 9.52; on Human M3 receptor, 8.52 to 9.52.
For the molecule `COc1cc(CNC[C@H](O)c2ccc(O)c3[nH]c(=O)ccc23)ccc1C(=O)NCc1ccc(COc2cccc([C@](O)(C(=O)OCC3CCN(Cc4ccccc4)CC3)c3ccccc3)c2)cc1` [Compound 42E, (1-benzylpiperidin-4-yl)methyl (S)-2-hydroxy-2-(3-((4-((4-((((R)-2-hydroxy-2-(8-hydroxy-2-oxo-1,2-dihydroquinolin-5-yl)ethyl)amino)methyl)-2-methoxybenzamido)methyl)benzyl)oxy)phenyl)-2-phenylacetate], the pIC50 on Human β2 adrenoceptor is greater than 9.52; on Human M3 receptor, 8.52 to 9.52.
As to `COc1cc(C(=O)NCc2ccc(COc3cccc([C@](O)(C(=O)OCC4CCN(Cc5ccccc5)CC4)c4ccccc4)c3)cc2)ccc1CNC[C@H](O)c1ccc(O)c2[nH]c(=O)ccc12` [Compound 42F, (1-benzylpiperidin-4-yl)methyl (S)-2-hydroxy-2-(3-((4-((4-((((R)-2-hydroxy-2-(8-hydroxy-2-oxo-1,2-dihydroquinolin-5-yl)ethyl)amino)methyl)-3-methoxybenzamido)methyl)benzyl)oxy)phenyl)-2-phenylacetate], the pIC50 was greater than 9.52 at Human β2 adrenoceptor and 8.52 to 9.52 on Human M3 receptor.
As for `O=C(NCCCNC[C@H](O)c1ccc(O)c2[nH]c(=O)ccc12)c1ccc(COc2cccc([C@](O)(C(=O)OCC3CCN(Cc4ccccc4)CC3)c3ccccc3)c2)cc1` [Compound 43, (S)-(1-Benzylpiperidin-4-yl)methyl 2-hydroxy-2-(3-((4-((3-(((R)-2-hydroxy-2-(8-hydroxy-2-oxo-1,2-dihydroquinolin-5-yl)ethyl)amino)propyl)carbamoyl)benzyl)oxy)phenyl)-2-phenylacetate], the pIC50 on Human β2 adrenoceptor and at Human M3 receptor was greater than 9.52 each time.
Take `O=C(NCCCNC[C@H](O)c1ccc(O)c2[nH]c(=O)ccc12)c1ccc(COc2cccc([C@@](O)(C(=O)OCC3CCN(Cc4ccccc4)CC3)c3ccccc3)c2)cc1` [Compound 44, (R)-(1-Benzylpiperidin-4-yl)methyl 2-hydroxy-2-(3-((4-((3-(((R)-2-hydroxy-2-(8-hydroxy-2-oxo-1,2-dihydroquinolin-5-yl)ethyl)amino)propyl)carbamoyl)benzyl)oxy)phenyl)-2-phenylacetate]: the pIC50 was greater than 9.52 on Human β2 adrenoceptor and 8.52 to 9.52 at Human M3 receptor.
In the case of `O=C(c1cccc(COc2cccc([C@](O)(C(=O)OCC3CCN(Cc4ccccc4)CC3)c3ccccc3)c2)c1)N(CCCNC[C@H](O)c1ccc(O)c2[nH]c(=O)ccc12)Cc1ccccc1` [Compound 45, (S)-(1-Benzylpiperidin-4-yl)methyl 2-(3-((3-(benzyl(3-(((R)-2-hydroxy-2-(8-hydroxy-2-oxo-1,2-dihydroquinolin-5-yl)ethyl)amino)propyl)carbamoyl)benzyl)oxy)phenyl)-2-hydroxy-2-phenylacetate], the pIC50 at Human β2 adrenoceptor and on Human M3 receptor was 8.52 to 9.52 each time.
Take `O=C(NCCCCNC[C@H](O)c1ccc(O)c2[nH]c(=O)ccc12)c1cccc(C(O)(C(=O)OCC2CCN(Cc3ccccc3)CC2)c2ccccc2)c1` (stereo partly drawn) [Compound 47, (1-benzylpiperidin-4-yl)methyl 2-hydroxy-2-(3-((4-(((R)-2-hydroxy-2-(8-hydroxy-2-oxo-1,2-dihydroquinolin-5-yl)ethyl)amino)butyl)carbamoyl)phenyl)-2-phenylacetate diformate]: the pIC50 was greater than 9.52 on Human β2 adrenoceptor and 8.52 to 9.52 at Human M3 receptor.
In the case of `O=C(NCCCNC(=O)c1cccc(C(O)(C(=O)OCC2CCN(Cc3ccccc3)CC2)c2ccccc2)c1)c1ccc(CNC[C@H](O)c2ccc(O)c3[nH]c(=O)ccc23)cc1` (stereo partly drawn) [Compound 50, (1-benzylpiperidin-4-yl)methyl 2-hydroxy-2-(3-((3-(4-((((R)-2-hydroxy-2-(8-hydroxy-2-oxo-1,2-dihydroquinolin-5-yl)ethyl)amino)methyl)benzamido)propyl)-carbamoyl)phenyl)-2-phenylacetate diformate], the results for the pIC50 on Human β2 adrenoceptor and on Human M3 receptor were less than 8.52 and 8.52 to 9.52, respectively.
Regarding `O=C(OCC1CCN(Cc2ccccc2)CC1)C(O)(c1ccccc1)c1ccc(OCCCCCNC[C@H](O)c2ccc(O)c3[nH]c(=O)ccc23)cc1` (stereo partly drawn) [Compound 51, (1-benzylpiperidin-4-yl)methyl 2-hydroxy-2-(4-((5-(((R)-2-hydroxy-2-(8-hydroxy-2-oxo-1,2-dihydroquinolin-5-yl)ethyl)amino)pentyl)oxy)phenyl)-2-phenylacetate diformate], the pIC50 was greater than 9.52 on Human β2 adrenoceptor and 8.52 to 9.52 on Human M3 receptor.
As for `O=C(NCc1ccc(COc2ccc(C(O)(C(=O)OCC3CCN(Cc4ccccc4)CC3)c3ccccc3)cc2)cc1)c1ccc(CNC[C@H](O)c2ccc(O)c3[nH]c(=O)ccc23)cc1` (stereo partly drawn) [Compound 53, (1-benzylpiperidin-4-yl)methyl 2-hydroxy-2-(4-((4-((4-((((R)-2-hydroxy-2-(8-hydroxy-2-oxo-1,2-dihydroquinolin-5-yl)ethyl)amino)methyl)benzamido)methyl)-benzyl)oxy)phenyl)-2-phenylacetate diformate], the pIC50 at Human β2 adrenoceptor and at Human M3 receptor was less than 8.52 each time.
Consider `O=C(Nc1cccc(C(O)(C(=O)OCC2CCN(Cc3ccccc3)CC2)c2ccccc2)c1)OCCCCCNC[C@H](O)c1ccc(O)c2[nH]c(=O)ccc12` (stereo partly drawn) [Compound 54, (1-benzylpiperidin-4-yl)methyl 2-hydroxy-2-(3-((((5-(((R)-2-hydroxy-2-(8-hydroxy-2-oxo-1,2-dihydroquinolin-5-yl)ethyl)amino)pentyl)oxy)carbonyl)amino)-phenyl)-2-phenylacetate bis hydrochloride], for which the results for the pIC50 at Human β2 adrenoceptor and at Human M3 receptor were greater than 9.52 and 8.52 to 9.52, respectively.
